Experiments:
[1] = target: Serine/threonine-protein kinase 4 (Homo sapiens) (UniProt Q13043); settings: Compound concentration 1000.0 nM
[2] = target: Serine/threonine-protein kinase Sgk1 (Homo sapiens) (UniProt O00141); settings: Compound concentration 1000.0 nM
[3] = target: Serine/threonine-protein kinase 32C (Homo sapiens) (UniProt Q86UX6); settings: Compound concentration 1000.0 nM
[4] = target: Mitogen-activated protein kinase kinase kinase 4 (Homo sapiens) (UniProt Q9Y6R4); settings: Compound concentration 1000.0 nM
[5] = target: Tyrosine-protein kinase Lck (Homo sapiens) (UniProt P06239); settings: Compound concentration 1000.0 nM
[6] = target: SRSF protein kinase 1 (Homo sapiens) (UniProt Q96SB4); settings: Compound concentration 1000.0 nM
[7] = target: Activin receptor type-2B (Homo sapiens) (UniProt Q13705); settings: Compound concentration 1000.0 nM
[8] = target: Ribosomal protein S6 kinase alpha-6 (Homo sapiens) (UniProt Q9UK32); settings: Compound concentration 1000.0 nM
[9] = target: Serine/threonine-protein kinase Nek3 (Homo sapiens) (UniProt P51956); settings: Compound concentration 1000.0 nM
[10] = target: STE20/SPS1-related proline-alanine-rich protein kinase (Homo sapiens) (UniProt Q9UEW8); settings: Compound concentration 1000.0 nM
[11] = target: GABA-A receptor; anion channel (Rattus norvegicus) (UniProt O09028+P15431+P18506+P18508+P19969+P20236+P23574+P23576+P28471+P28473+P30191+P62813+P63079+P63138+Q91ZM7+Q9ES14); settings: Compound concentration 10.0 uM
[12] = target: Cyclin-dependent kinase 5 (Homo sapiens) (UniProt Q00535); settings: Compound concentration 1000.0 nM
[13] = target: Eukaryotic translation initiation factor 2-alpha kinase 1 (Homo sapiens) (UniProt Q9BQI3); settings: Compound concentration 1000.0 nM
[14] = target: T1, 5-hydroxytryptamine receptor 2C (Homo sapiens) (UniProt P28335); settings: Compound concentration 10.0 uM
T1 sequence (whole entry): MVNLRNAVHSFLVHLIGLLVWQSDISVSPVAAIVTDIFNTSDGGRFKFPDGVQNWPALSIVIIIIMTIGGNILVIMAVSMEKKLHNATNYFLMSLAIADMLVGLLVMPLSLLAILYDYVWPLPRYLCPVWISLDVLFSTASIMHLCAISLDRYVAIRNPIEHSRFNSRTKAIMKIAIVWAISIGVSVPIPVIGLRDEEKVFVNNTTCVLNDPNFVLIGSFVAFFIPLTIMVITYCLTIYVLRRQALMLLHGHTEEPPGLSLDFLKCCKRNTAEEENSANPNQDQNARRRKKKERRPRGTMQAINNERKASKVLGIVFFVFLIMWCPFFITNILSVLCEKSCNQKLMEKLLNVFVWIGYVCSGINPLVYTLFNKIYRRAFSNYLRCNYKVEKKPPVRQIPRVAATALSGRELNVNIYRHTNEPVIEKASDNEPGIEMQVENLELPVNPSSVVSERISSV

[15] = system: Mast/stem cell growth factor receptor Kit (Homo sapiens), P10721 [A829P]; settings: Compound concentration 1000.0 nM
[16] = target: Calcium/calmodulin-dependent protein kinase type II subunit delta (Homo sapiens) (UniProt Q13557); settings: Compound concentration 1000.0 nM
[17] = target: Receptor-interacting serine/threonine-protein kinase 4 (Homo sapiens) (UniProt P57078); settings: Compound concentration 1000.0 nM
[18] = target: Mitogen-activated protein kinase 12 (Homo sapiens) (UniProt P53778); settings: Compound concentration 1000.0 nM
[19] = target: Tyrosine-protein kinase ABL2 (Homo sapiens) (UniProt P42684); settings: Compound concentration 1000.0 nM
[20] = target: Ribosomal protein S6 kinase alpha-1 (Homo sapiens) (UniProt Q15418); settings: Compound concentration 1000.0 nM
[21] = system: Epidermal growth factor receptor (Homo sapiens), P00533 [L858R]; settings: Compound concentration 1000.0 nM
[22] = system: Receptor-type tyrosine-protein kinase FLT3 (Homo sapiens), P36888 [UNDEFINED MUTATION]; settings: Compound concentration 1000.0 nM
[23] = target: STE20-like serine/threonine-protein kinase (Homo sapiens) (UniProt Q9H2G2); settings: Compound concentration 1000.0 nM
[24] = target: Mitogen-activated protein kinase kinase kinase 19 (Homo sapiens) (UniProt Q56UN5); settings: Compound concentration 1000.0 nM
[25] = target: Serine/threonine-protein kinase 26 (Homo sapiens) (UniProt Q9P289); settings: Compound concentration 1000.0 nM
[26] = target: Mitogen-activated protein kinase kinase kinase 5 (Homo sapiens) (UniProt Q99683); settings: Compound concentration 1000.0 nM
[27] = target: Tyrosine-protein kinase JAK1 (Homo sapiens) (UniProt P23458); settings: Compound concentration 1000.0 nM
[28] = target: MAP/microtubule affinity-regulating kinase 4 (Homo sapiens) (UniProt Q96L34); settings: Compound concentration 1000.0 nM
[29] = target: Calcium/calmodulin-dependent protein kinase type 1G (Homo sapiens) (UniProt Q96NX5); settings: Compound concentration 1000.0 nM
[30] = target: RAF proto-oncogene serine/threonine-protein kinase (Homo sapiens) (UniProt P04049); settings: Compound concentration 1000.0 nM
[31] = target: Phosphatidylinositol 3-kinase C2 domain-containing subunit gamma (Homo sapiens) (UniProt O75747); settings: Compound concentration 1000.0 nM
[32] = target: Serine/threonine-protein kinase/endoribonuclease IRE1 (Homo sapiens) (UniProt O75460); settings: Compound concentration 1000.0 nM
[33] = target: Mitogen-activated protein kinase kinase kinase 2 (Homo sapiens) (UniProt Q9Y2U5); settings: Compound concentration 1000.0 nM
[34] = target: 5-hydroxytryptamine receptor 1D (Homo sapiens, UniProt P28221); experiment: GPCRScan assay: inhibition of 5-HT1D; set-up: radioligand conc. used [nm] 1.0 – 2.0, parental cells HEKT
[35] = system: Fibroblast growth factor receptor 3 (Homo sapiens), P22607 [G697C]; settings: Compound concentration 1000.0 nM
[36] = target: Homeodomain-interacting protein kinase 3 (Homo sapiens) (UniProt Q9H422); settings: Compound concentration 1000.0 nM
[37] = system: Tyrosine-protein kinase ABL1 (Homo sapiens), P00519 [F317L]; settings: Compound concentration 1000.0 nM

Sequence of 5-hydroxytryptamine receptor 1D (P28221 whole entry): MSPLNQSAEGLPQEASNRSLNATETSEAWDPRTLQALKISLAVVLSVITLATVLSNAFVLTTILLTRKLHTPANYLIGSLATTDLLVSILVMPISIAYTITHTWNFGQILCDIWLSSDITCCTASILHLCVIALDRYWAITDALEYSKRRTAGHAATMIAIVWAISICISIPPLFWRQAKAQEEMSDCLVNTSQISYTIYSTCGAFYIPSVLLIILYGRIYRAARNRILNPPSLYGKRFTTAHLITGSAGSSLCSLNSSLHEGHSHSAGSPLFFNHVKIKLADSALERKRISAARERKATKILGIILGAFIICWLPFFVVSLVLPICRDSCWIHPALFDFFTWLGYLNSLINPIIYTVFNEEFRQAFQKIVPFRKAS
Sequence of Serine/threonine-protein kinase 4 (Homo sapiens) (Q13043 whole entry): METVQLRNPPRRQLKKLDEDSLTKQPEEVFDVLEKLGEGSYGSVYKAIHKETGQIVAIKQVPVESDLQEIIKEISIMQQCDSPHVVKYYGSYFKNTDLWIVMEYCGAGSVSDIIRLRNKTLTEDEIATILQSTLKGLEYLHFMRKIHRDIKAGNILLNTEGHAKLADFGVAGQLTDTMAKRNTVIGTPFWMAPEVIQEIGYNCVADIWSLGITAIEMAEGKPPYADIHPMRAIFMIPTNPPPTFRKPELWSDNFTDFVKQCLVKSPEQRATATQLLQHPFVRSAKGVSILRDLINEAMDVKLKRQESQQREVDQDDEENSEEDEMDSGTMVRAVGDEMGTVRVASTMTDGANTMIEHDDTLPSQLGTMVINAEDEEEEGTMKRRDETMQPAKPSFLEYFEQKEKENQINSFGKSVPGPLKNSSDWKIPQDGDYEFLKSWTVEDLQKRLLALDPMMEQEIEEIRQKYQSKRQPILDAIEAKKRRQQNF
Sequence of Ribosomal protein S6 kinase alpha-6 (Homo sapiens) (Q9UK32 whole entry): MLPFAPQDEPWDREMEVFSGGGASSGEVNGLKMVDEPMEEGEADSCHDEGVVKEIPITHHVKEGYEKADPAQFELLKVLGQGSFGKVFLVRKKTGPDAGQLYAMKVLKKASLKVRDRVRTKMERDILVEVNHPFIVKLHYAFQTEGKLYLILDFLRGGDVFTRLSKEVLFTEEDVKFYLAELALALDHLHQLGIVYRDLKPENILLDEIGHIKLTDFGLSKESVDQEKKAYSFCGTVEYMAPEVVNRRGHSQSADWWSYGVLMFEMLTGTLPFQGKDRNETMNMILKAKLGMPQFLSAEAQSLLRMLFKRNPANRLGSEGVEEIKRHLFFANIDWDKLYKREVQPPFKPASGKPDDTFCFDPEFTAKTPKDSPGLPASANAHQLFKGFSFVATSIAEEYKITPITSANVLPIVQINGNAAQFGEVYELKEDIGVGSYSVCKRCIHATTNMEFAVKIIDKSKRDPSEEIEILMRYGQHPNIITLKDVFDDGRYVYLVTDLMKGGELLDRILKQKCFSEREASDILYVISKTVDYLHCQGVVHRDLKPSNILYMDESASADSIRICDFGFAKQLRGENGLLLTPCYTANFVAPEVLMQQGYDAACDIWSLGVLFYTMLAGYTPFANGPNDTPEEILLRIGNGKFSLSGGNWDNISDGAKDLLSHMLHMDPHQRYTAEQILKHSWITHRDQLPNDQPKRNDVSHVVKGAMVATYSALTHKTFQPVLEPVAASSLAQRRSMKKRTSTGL
Sequence of Serine/threonine-protein kinase 26 (Homo sapiens) (Q9P289 2-416 limits assumed): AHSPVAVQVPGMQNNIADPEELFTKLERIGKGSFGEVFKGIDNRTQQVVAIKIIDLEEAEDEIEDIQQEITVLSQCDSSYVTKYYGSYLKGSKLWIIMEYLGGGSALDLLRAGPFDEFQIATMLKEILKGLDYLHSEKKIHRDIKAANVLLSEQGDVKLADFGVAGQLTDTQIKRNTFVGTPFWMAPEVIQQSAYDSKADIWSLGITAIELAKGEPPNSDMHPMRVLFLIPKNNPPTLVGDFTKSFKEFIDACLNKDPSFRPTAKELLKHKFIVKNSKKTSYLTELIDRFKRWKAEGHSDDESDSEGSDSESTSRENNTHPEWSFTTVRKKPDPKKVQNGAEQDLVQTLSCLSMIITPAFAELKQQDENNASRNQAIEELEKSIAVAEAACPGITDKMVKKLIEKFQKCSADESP
Sequence of Ribosomal protein S6 kinase alpha-1 (Homo sapiens) (Q15418 whole entry): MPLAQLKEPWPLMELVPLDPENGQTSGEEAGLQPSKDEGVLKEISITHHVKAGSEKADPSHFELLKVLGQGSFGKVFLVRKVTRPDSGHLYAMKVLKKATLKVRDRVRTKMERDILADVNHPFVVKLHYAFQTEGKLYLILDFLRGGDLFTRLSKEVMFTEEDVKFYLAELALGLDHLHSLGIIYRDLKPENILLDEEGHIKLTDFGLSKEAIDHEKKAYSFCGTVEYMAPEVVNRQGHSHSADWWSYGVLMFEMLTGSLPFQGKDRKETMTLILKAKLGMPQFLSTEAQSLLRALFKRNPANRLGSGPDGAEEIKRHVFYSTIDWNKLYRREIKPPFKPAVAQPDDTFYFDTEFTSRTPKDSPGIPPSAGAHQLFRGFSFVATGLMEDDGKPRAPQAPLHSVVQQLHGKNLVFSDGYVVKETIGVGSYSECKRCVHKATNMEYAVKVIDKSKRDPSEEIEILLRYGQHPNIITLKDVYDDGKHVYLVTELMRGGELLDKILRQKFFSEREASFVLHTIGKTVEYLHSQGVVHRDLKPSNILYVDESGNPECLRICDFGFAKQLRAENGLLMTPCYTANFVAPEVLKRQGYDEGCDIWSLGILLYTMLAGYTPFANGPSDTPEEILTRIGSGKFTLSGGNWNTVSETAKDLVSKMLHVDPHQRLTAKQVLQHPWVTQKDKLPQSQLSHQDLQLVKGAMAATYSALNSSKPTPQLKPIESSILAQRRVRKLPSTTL
Sequence of Mast/stem cell growth factor receptor Kit (Homo sapiens), P10721 [A829P] (P10721 whole entry A829P): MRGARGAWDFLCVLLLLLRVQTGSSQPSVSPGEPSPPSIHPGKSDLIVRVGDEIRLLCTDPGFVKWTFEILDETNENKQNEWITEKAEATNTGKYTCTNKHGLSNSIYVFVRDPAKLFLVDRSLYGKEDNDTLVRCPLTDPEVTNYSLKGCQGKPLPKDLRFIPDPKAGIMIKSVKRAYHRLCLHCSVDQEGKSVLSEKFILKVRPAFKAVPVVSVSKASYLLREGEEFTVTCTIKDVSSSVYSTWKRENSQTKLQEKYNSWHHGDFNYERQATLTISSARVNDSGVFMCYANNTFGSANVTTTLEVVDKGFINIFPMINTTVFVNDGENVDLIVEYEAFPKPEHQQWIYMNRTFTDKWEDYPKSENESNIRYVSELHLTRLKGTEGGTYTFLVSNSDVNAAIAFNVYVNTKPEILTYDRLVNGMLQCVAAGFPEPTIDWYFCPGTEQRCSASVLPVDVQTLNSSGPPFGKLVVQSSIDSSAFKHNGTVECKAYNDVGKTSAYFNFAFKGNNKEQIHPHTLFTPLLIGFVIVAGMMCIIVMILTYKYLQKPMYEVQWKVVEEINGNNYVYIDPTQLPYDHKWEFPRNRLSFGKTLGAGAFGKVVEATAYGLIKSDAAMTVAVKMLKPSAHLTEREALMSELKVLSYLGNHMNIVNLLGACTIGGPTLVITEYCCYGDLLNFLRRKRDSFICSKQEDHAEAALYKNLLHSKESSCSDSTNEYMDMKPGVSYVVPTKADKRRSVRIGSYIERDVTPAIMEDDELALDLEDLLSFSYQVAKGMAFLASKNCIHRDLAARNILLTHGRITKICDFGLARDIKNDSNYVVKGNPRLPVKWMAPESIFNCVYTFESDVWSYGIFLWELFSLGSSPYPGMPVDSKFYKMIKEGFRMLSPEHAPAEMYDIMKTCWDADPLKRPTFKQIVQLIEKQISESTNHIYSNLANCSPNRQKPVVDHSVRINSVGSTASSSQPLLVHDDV
Sequence of Serine/threonine-protein kinase Nek3 (Homo sapiens) (P51956 whole entry): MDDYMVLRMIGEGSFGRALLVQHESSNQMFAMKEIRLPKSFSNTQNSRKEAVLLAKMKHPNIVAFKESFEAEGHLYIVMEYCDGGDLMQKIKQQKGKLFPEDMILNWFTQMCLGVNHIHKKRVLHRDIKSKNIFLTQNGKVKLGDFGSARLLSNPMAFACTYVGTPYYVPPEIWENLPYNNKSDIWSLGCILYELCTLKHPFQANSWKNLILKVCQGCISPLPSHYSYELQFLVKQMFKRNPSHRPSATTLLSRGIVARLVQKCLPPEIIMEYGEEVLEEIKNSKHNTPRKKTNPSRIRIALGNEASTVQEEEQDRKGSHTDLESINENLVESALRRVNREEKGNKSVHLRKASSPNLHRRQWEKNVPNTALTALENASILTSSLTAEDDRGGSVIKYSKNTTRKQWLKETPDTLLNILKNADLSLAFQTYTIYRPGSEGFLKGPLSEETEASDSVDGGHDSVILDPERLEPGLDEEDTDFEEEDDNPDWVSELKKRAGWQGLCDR
Sequence of Cyclin-dependent kinase 5 (Homo sapiens) (Q00535 whole entry, looked up): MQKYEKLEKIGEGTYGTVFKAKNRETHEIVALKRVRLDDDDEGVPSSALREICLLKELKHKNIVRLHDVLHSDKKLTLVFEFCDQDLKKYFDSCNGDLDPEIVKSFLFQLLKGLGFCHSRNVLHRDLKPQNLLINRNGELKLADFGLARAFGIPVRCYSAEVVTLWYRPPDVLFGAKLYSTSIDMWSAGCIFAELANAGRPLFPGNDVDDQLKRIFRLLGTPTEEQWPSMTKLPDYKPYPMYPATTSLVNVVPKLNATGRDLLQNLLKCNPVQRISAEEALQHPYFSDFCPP
Sequence of Mitogen-activated protein kinase 12 (Homo sapiens) (P53778 whole entry): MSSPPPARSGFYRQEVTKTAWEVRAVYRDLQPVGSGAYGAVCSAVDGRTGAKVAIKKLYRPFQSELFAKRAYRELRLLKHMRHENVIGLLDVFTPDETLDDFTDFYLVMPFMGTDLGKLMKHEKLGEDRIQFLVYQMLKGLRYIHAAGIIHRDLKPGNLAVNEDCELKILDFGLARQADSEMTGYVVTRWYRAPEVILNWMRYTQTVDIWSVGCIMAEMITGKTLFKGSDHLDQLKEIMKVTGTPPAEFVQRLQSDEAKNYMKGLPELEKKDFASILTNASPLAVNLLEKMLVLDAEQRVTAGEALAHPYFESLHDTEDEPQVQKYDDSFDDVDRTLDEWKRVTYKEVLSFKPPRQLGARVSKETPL

SMILES | residual activity [1] | residual activity [2] | residual activity [3] | residual activity [4] | residual activity [5] | residual activity [6] | residual activity [7] | residual activity [8] | residual activity [9] | residual activity [10] | inhibition [11] | residual activity [12] | residual activity [13] | inhibition [14] | residual activity [15] | residual activity [16] | residual activity [17] | residual activity [18] | residual activity [19] | residual activity [20] | further results
CNCc1ccccc1-c1csc([C@@H](C)Nc2nc(C)nc3cc(OC)c(OC)cc23)c1 [BAY-293] | 100% | 81% | 60% | 73% | 100% | 90% | 100% | 85% | 100% | 100% | 12.3% | 78% | 100% | 73.7% | 87% | 99% | 91% | 100% | 100% | 76% | residual activity [21]: 82%; residual activity [22]: 89%; residual activity [23]: 97%; residual activity [24]: 71%; residual activity [25]: 99%; residual activity [26]: 91%; residual activity [27]: 73%; residual activity [28]: 100%; residual activity [29]: 93%; residual activity [30]: 70%; residual activity [31]: 59%; residual activity [32]: 100%; residual activity [33]: 87%; Ki ([34]; read-out: Ki): 181 nM; Ki ([34]; read-out: pKi (converted)): 170 nM; residual activity [35]: 85%; residual activity [36]: 83%; residual activity [37]: 100%
CNCc1ccccc1-c1csc([C@H](C)Nc2nc(C)nc3cc(OC)c(OC)cc23)c1 [BAY-294] | 100% | 91% | 71% | 100% | 100% | 100% | 100% | 100% | 87% | 100% | 9.67% | 98% | 100% | 71.8% | 100% | 97% | 75% | 100% | 100% | 93% | residual activity [21]: 100%; residual activity [22]: 99%; residual activity [23]: 100%; residual activity [24]: 78%; residual activity [25]: 97%; residual activity [26]: 100%; residual activity [27]: 68%; residual activity [28]: 100%; residual activity [29]: 96%; residual activity [30]: 65%; residual activity [31]: 100%; residual activity [32]: 100%; residual activity [33]: 100%; Ki ([34]; read-out: Ki): 93.5 nM; Ki ([34]; read-out: pKi (converted)): 92.3 nM; residual activity [35]: 100%; residual activity [36]: 97%; residual activity [37]: 100%
